In patent US9975869B2 (Sphaera Pharma Pvt. Ltd., priority 2013, dated 2018):

What follows are compounds tested on AMPK (assay: AMPK activation potential, cell based ELISA (Phospho-AMPKα Thr172) in Hep G2 cells). Conditions: 10 nm concentration; Hep G2 liver cells; % activity with DMSO control as 100%; 30 min incubation for Epicatechin analogs.
Method: Testing of Compounds for Their AMPK Activation Potential
AMPK activation potential of the compounds was evaluated using cell based ELISA. Hepatoma (Hep G2) liver cells were maintained in a T 75 culture flask-containing 25 mM DMEM+10% fetal calf serum. The cells were maintained in a T 75 culture flask-containing medium (DMEM+10% fetal calf serum). On reaching a confluence of 70 to 80%, the cells were seeded in a 96 well plate at a density of 40,000 cells per well in 25 mM DMEM+10% FCS medium. The plates were then incubated at 37° C. with 5% CO2 for 24 hours. Various concentrations of drugs were prepared in DMSO and diluted to required concentration with the medium and incubated at 37° C. with 5% CO2 for 30 min and 1 h for Epicatechin analogs and 11-BHP analogs respectively. Metformin was used as positive control. Cells were fixed with 4% formaldehyde for 30 minutes at room temperature and washed three times with PBS containing 0.1% Triton X-100. Endogenous peroxidase was quenched with 1% H2O2 in PBS-T (0.1% Tween 20) for 30 minutes and washed three times in PBS-T. Cells were blocked with 1% BSA in PBS-T for 1 hour. The cells were incubated with 1:1000 dilution primary antibody (Phospho-AMPKα (Thr172) Rabbit mAb, Cell Signaling in PBS-T containing 5% BSA at 4° C. overnight. The cells were then washed three times with PBS-T for 5 minutes and incubated with 1:1000 dilution secondary antibody (Anti-rabbit IgG, HRP-linked Antibody, Cell Signaling) in PBS-T with 1% BSA for 1 hour at RT. Cells were washed three times with PBS-T for 5 minutes The cells were incubated with 100 μl TMB substrate solution for 30 minutes and the reaction was stopped with 100 μl of 2N H2SO4. Then the plate was read at 450 nm using ELISA plate reader and absorbance recorded. % activity was calculated using DMSO control as 100%. All compounds of the present invention, as exemplified and encompassed are found to be active.
For `COC(=O)Oc1cc(OC(=O)OC)c2c(c1)O[C@H](c1ccc(O)c(O)c1)[C@H](O)C2` [Compound 1058, (2R,3R)-2-(3,4-dihydroxyphenyl)-3-hydroxychromane-5,7-diyl dimethyl bis(carbonate)], the “% pAMPK(at 10 nm)” value was 117%. `O=C(NCc1ccccc1)Oc1ccc([C@H]2Oc3cc(O)cc(O)c3C[C@H]2O)cc1OC(=O)NCc1ccccc1` [Compound 1059, 4-((2R,3R)-3,5,7-trihydroxychroman-2-yl)-1,2-phenylene bis(benzylcarbamate)] was tested, and the “% pAMPK(at 10 nm)” value was 144%. With `CC(C)COC(=O)Oc1cc(OC(=O)OCC(C)C)c2c(c1)O[C@H](c1ccc(OC(=O)OCc3ccccc3)c(OC(=O)OCc3ccccc3)c1)[C@H](O)C2` [Compound 1060, dibenzyl (4-((2R,3R)-3-hydroxy-5,7-bis((isobutoxycarbonyl)oxy)chroman-2-yl)-1,2-phenylene) bis(carbonate)] the “% pAMPK(at 10 nm)” value was 110%. `CCCCCCCC(=O)Oc1cc(O)cc2c1C[C@@H](O)[C@@H](c1ccc(O)c(O)c1)O2` [Compound 1064, (2R,3R)-2-(3,4-dihydroxyphenyl)-3,7-dihydroxychroman-5-yl octanoate] was tested, and the “% pAMPK(at 10 nm)” value was 110%. For `COC(=O)Oc1cc(OC(=O)OC)c2c(c1)O[C@H](c1ccc(OC(=O)OCc3ccccc3)c(OC(=O)OCc3ccccc3)c1)[C@H](O)C2` [Compound 1066, dibenzyl (4-((2R,3R)-3-hydroxy-5,7-bis((methoxycarbonyl)oxy)chroman-2-yl)-1,2-phenylene) bis(carbonate)], the “% pAMPK(at 10 nm)” value was 139%. For `CCCO[C@@H]1Cc2ccc(O)cc2O[C@@H]1c1cccc(OC)c1` [Compound 1068, (2R,3R)-2-(3-methoxyphenyl)-3-propoxychroman-7-ol], the “% pAMPK(at 10 nm)” value was 90%. In the case of `Cc1ccc([C@H]2Oc3cc(O)ccc3C[C@H]2O)cc1O` [Compound 1069, (2R,3R)-2-(3-hydroxy-4-methylphenyl)chromane-3,7-diol], the “% pAMPK(at 10 nm)” value is reported as 110%. For `COc1ccc([C@H]2Oc3cc(OC)ccc3C[C@H]2O)cc1` [Compound 1070, (2R,3R)-7-methoxy-2-(4-methoxyphenyl)chroman-3-ol], the “% pAMPK(at 10 nm)” value was 126%. In the case of `O=C(O[C@@H]1Cc2c(O)cc(O)cc2O[C@@H]1c1ccc(O)c(O)c1)c1cccnc1` [Compound 1071, (2R,3R)-2-(3,4-dihydroxyphenyl)-5,7-dihydroxychroman-3-yl nicotinate], the “% pAMPK(at 10 nm)” value is reported as 102%. With `CC(C)(C)COC(=O)Oc1ccc([C@H]2Oc3cc(O)cc(O)c3C[C@H]2O)cc1OC(=O)OCC(C)(C)C` [Compound 1072, dineopentyl (4-((2R,3R)-3,5,7-trihydroxychroman-2-yl)-1,2-phenylene) bis(carbonate)] the “% pAMPK(at 10 nm)” value was 99%. `CC(C)(C)OC(=O)O[C@@H]1Cc2c(O)cc(O)cc2O[C@@H]1c1ccc(O)c(O)c1` [Compound 1073, tert-butyl ((2R,3R)-2-(3,4-dihydroxyphenyl)-5,7-dihydroxychroman-3-yl) carbonate] was tested, and the “% pAMPK(at 10 nm)” value was 109%.
